These results are taken from article PMC3523097 (Journal of medicinal chemistry, 2012).

The test system of data set [1] is CD-1 mice. The experiment in a line: Antinociception after s.c. administration, radiant heat tail-flick test. The data set is classed as in vivo. The settings on record: mouse tail-flick test; for ED50 (95% confidence limits): at the time of peak effect. In general terms: Thermal pain tests record how soon the animal reacts.
Data set [2] concerns mouse brain (blood-brain barrier). Nature of the data set: Blood-to-brain influx, multiple time regression of [125I]-peptides. The settings on record: for Vbr (brain distribution volume): [125I]-labelled, CD-1 mice, mean ± SEM.
Data set [3] relates to CD-1 mice. Nature of the data set: Antinociception after i.p. administration, 55 °C tail withdrawal. The data set is classed as in vivo, mouse. As to conditions: for Time of maximum antinociceptive activity post i.p. injection: mice; for Antinociceptive effect after i.p. injection, in words: Figure 3; for Antinociceptive activity, times higher than the antinociception of morphine: at the plateau decline phase.

The subject of data set [4] is mouse tissues (spleen, liver, lungs, heart, kidneys, serum). Nature of the data set: In vivo tissue biodistribution of [125I]-peptides. The settings on record: for Serum levels: 15 min after administration, rank in words.
The conditions of data set [5]: incubated in sheep blood; cited from earlier work.
Data set [6] concerns the target T1, MOR (Rattus norvegicus, UniProt P33535). Nature of the data set: MOR receptor binding, displacement of [3H]DAMGO from rat brain membranes. The settings on record: ratio of MOR/DOR/KOR Ki. (Loss of bound radioactivity is the signal in a displacement assay; it reports binding, not function.)
For data set [7], the system named is DOR (mouse vas deferens, MVD). Nature of the data set: Mouse vas deferens. The data set is classed as biochemical.
The subject of data set [8] is MOR (guinea pig ileum, GPI). The experiment in a line: Guinea pig ileum. The data set is classed as biochemical.
In data set [9] the test system is MOR (guinea pig ileum, GPI). As to conditions: read-out: GPI (μ) IC50; cited from earlier work.
In data set [10] the target is T1, MOR. The settings on record: ratio of MOR/DOR/KOR Ki; cited from earlier work.
Data set [11] has as its system DOR (mouse vas deferens, MVD). As to conditions: read-out: MVD (δ) IC50; cited from earlier work.
The conditions of data set [12]: cited from earlier work.

Values joined by “and” are separate entries in the source; they are usually repeats but may differ in a detail not shown here. Identical values can stand only once. “Also recorded” adds a separate entry of the source. Like-named read-outs stand apart in the source and are kept apart here. Non-standard residues stand in square brackets, D forms with d. Residues, ends and D or L forms follow the SMILES beside them. Dmt = Cc1cc(O)cc(C)c1C[C@H](N)C(=O)O; dCit = NC(=O)NCCC[C@@H](N)C(=O)O; Nle = CCCC[C@H](N)C(=O)O Where only a bound is given, the exact number is not on record here.

T1 sequence (P33535 whole entry): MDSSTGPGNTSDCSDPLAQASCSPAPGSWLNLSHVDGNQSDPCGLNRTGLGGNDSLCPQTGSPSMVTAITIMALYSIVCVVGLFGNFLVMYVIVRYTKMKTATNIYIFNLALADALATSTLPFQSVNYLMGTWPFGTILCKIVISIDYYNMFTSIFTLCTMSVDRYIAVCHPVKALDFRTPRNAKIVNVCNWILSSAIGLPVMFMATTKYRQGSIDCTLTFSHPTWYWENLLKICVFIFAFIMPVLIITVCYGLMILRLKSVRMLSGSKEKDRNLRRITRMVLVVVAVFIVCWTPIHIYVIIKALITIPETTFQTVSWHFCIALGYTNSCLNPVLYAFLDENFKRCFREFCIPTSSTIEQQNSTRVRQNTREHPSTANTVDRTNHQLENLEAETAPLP

In the case of `CN1CC[C@]23c4c5ccc(O)c4O[C@H]2[C@@H](O)C=C[C@H]3[C@H]1C5` [Morphine, reference compound], in [1] (from ED50), the “Relative potency to Morphine” value was 1.

On to `Cc1cc(O)cc(C)c1C[C@H](N)C(=O)N[C@H](CCCNC(=N)N)C(=O)N[C@@H](Cc1ccccc1)C(=O)N[C@@H](CCCCN)C(N)=O` [Peptide 1, H-Dmt-D-Arg-Phe-Lys-NH2, reference compound], for which the “Vbr (brain distribution volume)” value in data set [2] is 19.25 ± 1.02 µL/g. For the same compound, in [3], the “Time of maximum antinociceptive activity post i.p. injection” value is 60 min. In addition, in data set [4], the Serum levels entry was “highest”. Further, in [1], the “Duration of antinociceptive action” value lay in the range of 6 to 7 h, the “Time of peak effect” value worked out at 2 h and the “ED50 (95% confidence limits)” value is 0.15 (0.07-0.32) μmol/kg. Further, in data set [1] (listed as [Dmt^1]-DALDA), the “Duration of antinociceptive action” value is recorded as greater than 7 h. In data set [5], the “t1/2 in sheep blood” value is 108 min.

Regarding `CCCC[C@H](NC(=O)[C@H](Cc1ccccc1)NC(=O)[C@@H](CCCN=C(N)N)NC(=O)[C@@H](N)Cc1c(C)cc(O)cc1C)C(N)=O` [Peptide 9, H-Dmt-D-Arg-Phe-Nle-NH2] (H-[Dmt][dR]F[Nle]-NH2), the “Vbr (brain distribution volume)” value in [2] stood at 27.43 ± 4.80 µL/g. Moreover, the Serum levels result in data set [4] is reported as “lowest”.

`CCCC[C@H](NC(=O)[C@H](Cc1ccccc1)NC(=O)[C@@H](CCCNC(=N)N)NC(=O)[C@@H](N)Cc1c(C)cc(O)cc1C)C(N)=O` [Peptide 9, H-Dmt-D-Arg-Phe-Nle-NH2] (H-[Dmt][dR]F[Nle]-NH2): the “Antinociceptive effect after i.p. injection, in words” value in [3] is reported as “relatively low antinociceptive activity”. Further, in [1], the “Antinociceptive effect after s.c. administration, in words” value is reported as “no dose-related antinociception; also recorded: failed to reach a 50% effect after s.c. administration of 6 μmol/kg” and the “ED50 (95% confidence limits)” value is greater than 6 µmol/kg. The “Ki ratio μ/δ/κ” value in [6] is on record as 1/66/70.

Turning to `Cc1cc(O)cc(C)c1C[C@H](N)C(=O)N[C@H](CCCNC(N)=O)C(=O)N[C@@H](Cc1ccccc1)C(=O)N[C@@H](CCCCN)C(N)=O` [Peptide 10, H-Dmt-D-Cit-Phe-Lys-NH2], the “Vbr (brain distribution volume)” value in [2] stood at 27.12 ± 3.76 µL/g. Moreover, the “Time of maximum antinociceptive activity post i.p. injection” value in [3] amounted to 45 min. In [4], the Serum levels entry is reported as “intermediate”. For the same compound, in data set [1], the “Duration of antinociceptive action” value fell in the range of 2 to 3 h, the “Time of peak effect” value is recorded as 1 h and the “ED50 (95% confidence limits)” value was 0.23 (0.10-0.55) μmol/kg. Besides, in data set [6], the “Ki ratio μ/δ/κ” value was 1/88/37.

For the compound `CCCC[C@H](NC(=O)[C@H](Cc1ccccc1)NC(=O)[C@@H](CCCNC(N)=O)NC(=O)[C@@H](N)Cc1c(C)cc(O)cc1C)C(N)=O` [Peptide 11, H-Dmt-D-Cit-Phe-Nle-NH2] (H-[Dmt][dCit]F[Nle]-NH2), the “Ki ratio μ/δ/κ” value in data set [6] was 1/5/125.

For `Cc1cc(O)cc(C)c1C[C@H](N)C(=O)N[C@H](CCCNC(=N)N)C(=O)N[C@@H](Cc1ccccc1)C(=O)N(C)[C@@H](CCCCN)C(N)=O` [Peptide 12, H-Dmt-D-Arg-Phe-NMeLys-NH2], the “Vbr (brain distribution volume)” value in data set [2] came to 21.99 ± 2.81 µL/g. Moreover, in [3], the “Antinociceptive activity, times higher than the antinociception of morphine” value is on record as 13 - 15 and the “Time of maximum antinociceptive activity post i.p. injection” value lay within 60 to 90 min. Besides, the Serum levels result in [4] is on record as “intermediate”. In addition, in data set [1], the “Duration of antinociceptive action” value is listed as greater than 7 h; the “Time of peak effect” value was 1 to 4 h and 2 h; the “ED50 (95% confidence limits)” value is 0.13 (0.06-0.30) μmol/kg. Moreover, in data set [6], the “Ki ratio μ/δ/κ” value is 1/1190/216.

For the compound `CCCC[C@@H](C(N)=O)N(C)C(=O)[C@H](Cc1ccccc1)NC(=O)[C@@H](CCCNC(=N)N)NC(=O)[C@@H](N)Cc1c(C)cc(O)cc1C` [Peptide 13, H-Dmt-D-Arg-Phe-NMeNle-NH2], the “Ki ratio μ/δ/κ” value in [6] is listed as 1/62/55.

On to `Cc1cc(O)cc(C)c1C[C@H](N)C(=O)N[C@H](CCCNC(N)=O)C(=O)N[C@@H](Cc1ccccc1)C(=O)N(C)[C@@H](CCCCN)C(N)=O` [Peptide 14, H-Dmt-D-Cit-Phe-NMeLys-NH2], for which the “Vbr (brain distribution volume)” value in [2] came out at 17.13 ± 2.36 µL/g. Moreover, in [3], the “Antinociceptive activity, times higher than the antinociception of morphine” value is reported as 13 - 15 and the “Time of maximum antinociceptive activity post i.p. injection” value is 60 to 90 min. The Serum levels entry in data set [4] was “intermediate”. In addition, in data set [1], the “Duration of antinociceptive action” value lay within 2 to 3 h, the “Time of peak effect” value is reported as 1 h and the “ED50 (95% confidence limits)” value was 0.16 (0.07-0.36) μmol/kg. For the same compound, the “Ki ratio μ/δ/κ” value in data set [6] is given as 1/42/12.

`Cc1cc(O)cc(C)c1C[C@H](N)C(=O)N[C@H](CCCNC(=N)N)C(=O)N[C@H]1Cc2ccccc2CN([C@@H](CCCCN)C(N)=O)C1=O` [Peptide 16, H-Dmt-D-Arg-Aba-Lys-NH2]: the “MVD (δ) IC25” value in data set [7] (IC25 given instead of IC50) is 64 (IC25) nM.

On to `CCCC[C@@H](C(N)=O)N1Cc2ccccc2C[C@H](NC(=O)[C@@H](CCCNC(=N)N)NC(=O)[C@@H](N)Cc2c(C)cc(O)cc2C)C1=O` [Peptide 17, H-Dmt-D-Arg-Aba-Nle-NH2], for which the “Ki ratio μ/δ/κ” value in data set [6] was 1/17/3.

As for `CCCC[C@@H](C(N)=O)N1Cc2ccccc2C[C@H](NC(=O)[C@@H](CCCNC(N)=O)NC(=O)[C@@H](N)Cc2c(C)cc(O)cc2C)C1=O` [Peptide 19, H-Dmt-D-Cit-Aba-Nle-NH2], the “GPI (μ) IC35” value in [8] (IC35 given instead of IC50) is 0.78 (IC35) nM. Also, the MOR functional profile result in data set [8] (in words) is “MOR partial agonist”. Moreover, the DOR functional profile entry in data set [7] (in words) is reported as “DOR full agonist”. In addition, in data set [6], the “Ki ratio μ/δ/κ” value is reported as 1/3/12.

Turning to `Cc1cc(O)cc(C)c1C[C@H](N)C(=O)N[C@H](CCCNC(=N)N)C(=O)N[C@H]1Cc2ccccc2CN(CC(N)=O)C1=O` [Peptide 20, H-Dmt-D-Arg-Aba-Gly-NH2, reference compound], in [2], the “Vbr (brain distribution volume)” value turned out to be 24.01 ± 3.41 µL/g. For the same compound, the half-maximal inhibitory concentration (IC50) (in general, the point on the concentration scale where inhibition reaches its midpoint) in data set [9] is 0.32 nM. Also, in data set [10], the “Ki ratio μ/δ/κ” value was 1/4/787. Moreover, the concentration for half-maximal inhibition (IC50) in data set [11] was 0.42 nM. The “Antinociceptive effect after i.p. injection, in words” value in data set [3] is “slow and shallow antinociceptive response”. In data set [4], the Serum levels entry was “intermediate”. In [4] ([125I]-peptide, mice, Figure 2), the “Tissue distribution (percentage of mass-corrected injected dose), in words” value is listed as “higher kidney uptake”. In data set [1], the “Duration of antinociceptive action” value lay in the range of 6 to 7 h, the “Time of peak effect” value is recorded as 1 h and the “ED50 (95% confidence limits)” value is on record as 0.47 (0.18-1.2) μmol/kg.

For `C[C@@H](NC(=O)[C@@H](N)Cc1ccc(O)cc1)C(=O)N[C@@H](Cc1ccccc1)C(=O)NCC(=O)N[C@@H](Cc1ccc(O)cc1)C(=O)N1CCC[C@H]1C(=O)N[C@@H](CO)C(N)=O` [dermorphin, Tyr-D-Ala-Phe-Gly-Tyr-Pro-Ser-NH2, reference compound], the “mean influx transfer constant (mean Kin)” value in [2] (I-125 labelled control, over 15 minutes for dermorphin) was 0.173 ± 0.137 µL/g/min. The “Antinociceptive effect after i.p. injection, in words” value in [3] is “inability of dermorphin to induce a significant antinociceptive effect”.

For the compound endomorphin-1, the “t1/2 in mouse plasma” value in [12] is 4 to 7 min.

For the compound endomorphin-2, the “t1/2 in mouse plasma” value in data set [12] is 4 to 7 min.
